# Results from US9193720B2, “Pyridin-3-yl acetic acid derivatives as inhibitors of human immunodeficiency virus replication” (priority 2014, dated 2015).
# System: NL-RLuc virus
# Assay: Inhibition of HIV Replication (NL-RLuc luciferase reporter virus in MT-2 cells)
# Type: cell-based
# Settings: Human immunodeficiency virus 1, MT2, 120 h
# From the text: Inhibition of HIV Replication:
# A recombinant NL-RLuc proviral clone was constructed in which a section of the nef gene from NL4-3 was replaced with the Renilla Luciferase gene. This virus is fully infectious and can undergo multiple cycles of replication in cell culture. In addition, the luciferous reporter provides a simple and easy method for quantitating the extent of virus growth and consequently, the antiviral activity of test compounds. The plasmid pNLRLuc contains the proviral NL-Rluc DNA cloned into pUC18 at the PvuII site. The NL-RLuc virus was prepared by transfection of 293T cells with the plasmid pNLRLuc. Transfections were performed using the LipofectAMINE PLUS kit from Invitrogen (Carlsbad, Calif.) according to the manufacturer and the virus generated was titered in MT-2 cells. For susceptibility analyses, the titrated virus was used to infect MT-2 cells in the presence of compound, and after 5 days of incubation, cells were processed and quantitated for virus growth by the amount of expressed luciferase. Assay media was RPMI 1640 supplemented with 10% heat inactivated fetal bovine serum (FBS), 100 units/ml penicillin G/100 units/ml streptomycin, 10 mM HEPES buffer pH 7.55 and 2 mM L-glutamine. The results from at least 2 experiments were used to calculate the EC50 values. Luciferase was quantitated using the Dual Luciferase kit from Promega (Madison, Wis.). Susceptibility of viruses to compounds was determined by incubation in the presence of serial dilutions of the compound. The 50% effective concentration (EC50) was calculated by using the exponential form of the median effect equation where (Fa)=1/[1+(ED50/drug conc.)^m] (Johnson V A, Byington R T. Infectivity Assay. In Techniques in HIV Research. ed. Aldovini A, Walker B D. 71-76. New York: Stockton Press. 1990).
row,Compound,EC50 [nM]
1,"Cc1nc(C)c([C@H](OC(C)(C)C)C(=O)O)c(N2CCC(C)(C)CC2)c1-c1ccc(OCCc2ccc(Cl)c(F)c2)cc1 [Example 27, (S)-2-(tert-butoxy)-2-(5-(4-(4-chloro-3-fluorophenethoxy)phenyl)-4-(4,4-dimethylpiperidin-1-yl)-2,6-dimethylpyridin-3-yl)acetic acid]",12
2,"Cc1ccc(CCOc2ccc(-c3c(C)nc(C)c([C@H](OC(C)(C)C)C(=O)O)c3N3CCC(C)(C)CC3)cc2)cc1 [Example 28, (S)-2-(tert-butoxy)-2-(4-(4,4-dimethylpiperidin-1-yl)-2,6-dimethyl-5-(4-(4-methylphenethoxy)phenyl)pyridin-3-yl)acetic acid]",19
3,"Cc1nc(C)c([C@H](OC(C)(C)C)C(=O)O)c(N2CCC(C)(C)CC2)c1-c1ccc(OCC(C)(C)c2ccc(Cl)cc2)cc1 [Example 29, (S)-2-(tert-butoxy)-2-(5-(4-(2-(4-chlorophenyl)-2-methylpropoxy)phenyl)-4-(4,4-dimethylpiperidin-1-yl)-2,6-dimethylpyridin-3-yl)acetic acid]",15
4,"Cc1nc(C)c([C@H](OC(C)(C)C)C(=O)O)c(N2CCC(C)(C)CC2)c1-c1ccc(OCCc2ccc3ccccc3c2)cc1 [Example 30, (S)-2-(tert-butoxy)-2-(4-(4,4-dimethylpiperidin-1-yl)-2,6-dimethyl-5-(4-(2-(naphthalen-2-yl)ethoxy)phenyl)pyridin-3-yl)acetic acid]",6
5,"Cc1nc(C)c([C@H](OC(C)(C)C)C(=O)O)c(N2CCC(C)(C)CC2)c1-c1ccc(OCCc2ccc(OCc3ccccc3)cc2)cc1 [Example 31, (S)-2-(5-(4-(4-(benzyloxy)phenethoxy)phenyl)-4-(4,4-dimethylpiperidin-1-yl)-2,6-dimethylpyridin-3-yl)-2-(tert-butoxy)acetic acid]",47
6,"Cc1nc(C)c([C@H](OC(C)(C)C)C(=O)O)c(N2CCC(C)(C)CC2)c1-c1ccc(OCC(C)c2ccc(F)cc2)cc1 (stereo partly drawn) [Example 32, (2S)-2-(tert-butoxy)-2-(4-(4,4-dimethylpiperidin-1-yl)-5-(4-(2-(4-fluorophenyl)propoxy)phenyl)-2,6-dimethylpyridin-3-yl)acetic acid]",11
7,"Cc1nc(C)c([C@H](OC(C)(C)C)C(=O)O)c(N2CCC(C)(C)CC2)c1-c1ccc(OCCc2ccccn2)cc1 [Example 33, (S)-2-(tert-butoxy)-2-(4-(4,4-dimethylpiperidin-1-yl)-2,6-dimethyl-5-(4-(2-(pyridin-2-yl)ethoxy)phenyl)pyridin-3-yl)acetic acid]",1
8,"CO[C@H](COc1ccc(-c2c(C)nc(C)c([C@H](OC(C)(C)C)C(=O)O)c2N2CCC(C)(C)CC2)cc1)c1ccccc1 [Example 34, (S)-2-(tert-butoxy)-2-(4-(4,4-dimethylpiperidin-1-yl)-5-(4-((S)-2-methoxy-2-phenylethoxy)phenyl)-2,6-dimethylpyridin-3-yl)acetic acid]",11
9,"CO[C@@H](COc1ccc(-c2c(C)nc(C)c([C@H](OC(C)(C)C)C(=O)O)c2N2CCC(C)(C)CC2)cc1)c1ccccc1 [Example 35, (S)-2-(tert-butoxy)-2-(4-(4,4-dimethylpiperidin-1-yl)-5-(4-((R)-2-methoxy-2-phenylethoxy)phenyl)-2,6-dimethylpyridin-3-yl)acetic acid]",13
10,"COc1cccc(CCOc2ccc(-c3c(C)nc(C)c([C@H](OC(C)(C)C)C(=O)O)c3N3CCC(C)(C)CC3)cc2)c1 [Example 36, (S)-2-(tert-butoxy)-2-(4-(4,4-dimethylpiperidin-1-yl)-5-(4-(3-methoxyphenethoxy)phenyl)-2,6-dimethylpyridin-3-yl)acetic acid]",2
11,"Cc1nc(C)c([C@H](OC(C)(C)C)C(=O)O)c(N2CCC(C)(C)CC2)c1-c1ccc(OCCc2ccncc2)cc1 [Example 37, (S)-2-(tert-butoxy)-2-(4-(4,4-dimethylpiperidin-1-yl)-2,6-dimethyl-5-(4-(2-(pyridin-4-yl)ethoxy)phenyl)pyridin-3-yl)acetic acid]",1
12,"Cc1nc(C)c([C@H](OC(C)(C)C)C(=O)O)c(N2CCC(C)(C)CC2)c1-c1ccc(OCCc2cccc3ccccc23)cc1 [Example 38, (S)-2-(tert-butoxy)-2-(4-(4,4-dimethylpiperidin-1-yl)-2,6-dimethyl-5-(4-(2-(naphthalen-1-yl)ethoxy)phenyl)pyridin-3-yl)acetic acid]",6
13,"Cc1nc(C)c([C@H](OC(C)(C)C)C(=O)O)c(N2CCC(C)(C)CC2)c1-c1ccc(OCCc2ccccc2)cc1 [Example 39, (S)-2-(tert-butoxy)-2-(4-(4,4-dimethylpiperidin-1-yl)-2,6-dimethyl-5-(4-phenethoxyphenyl)pyridin-3-yl)acetic acid]",2
14,"Cc1ncsc1CCOc1ccc(-c2c(C)nc(C)c([C@H](OC(C)(C)C)C(=O)O)c2N2CCC(C)(C)CC2)cc1 [Example 40, (S)-2-(tert-butoxy)-2-(4-(4,4-dimethylpiperidin-1-yl)-2,6-dimethyl-5-(4-(2-(4-methylthiazol-5-yl)ethoxy)phenyl)pyridin-3-yl)acetic acid]",1
15,"Cc1nc(C)c([C@H](OC(C)(C)C)C(=O)O)c(N2CCC(C)(C)CC2)c1-c1ccc(OCCc2cccnc2)cc1 [Example 41, (S)-2-(tert-butoxy)-2-(4-(4,4-dimethylpiperidin-1-yl)-2,6-dimethyl-5-(4-(2-(pyridin-3-yl)ethoxy)phenyl)pyridin-3-yl)acetic acid]",1
16,"Cc1nc(CCOc2ccc(-c3c(C)nc(C)c([C@H](OC(C)(C)C)C(=O)O)c3N3CCC(C)(C)CC3)cc2)cs1 [Example 42, (S)-2-(tert-butoxy)-2-(4-(4,4-dimethylpiperidin-1-yl)-2,6-dimethyl-5-(4-(2-(2-methylthiazol-4-yl)ethoxy)phenyl)pyridin-3-yl)acetic acid]",4
17,"Cc1nc(C)c([C@H](OC(C)(C)C)C(=O)O)c(N2CCC(C)(C)CC2)c1-c1ccc(OCc2cncs2)cc1 [Example 43, (S)-2-(tert-butoxy)-2-(4-(4,4-dimethylpiperidin-1-yl)-2,6-dimethyl-5-(4-(thiazol-5-ylmethoxy)phenyl)pyridin-3-yl)acetic acid]",14
18,"Cc1nc(C)c(COc2ccc(-c3c(C)nc(C)c([C@H](OC(C)(C)C)C(=O)O)c3N3CCC(C)(C)CC3)cc2)s1 [Example 44, (S)-2-(tert-butoxy)-2-(4-(4,4-dimethylpiperidin-1-yl)-5-(4-((2,4-dimethylthiazol-5-yl)methoxy)phenyl)-2,6-dimethylpyridin-3-yl)acetic acid]",12
19,"Cc1nc(-c2ccccc2)sc1COc1ccc(-c2c(C)nc(C)c([C@H](OC(C)(C)C)C(=O)O)c2N2CCC(C)(C)CC2)cc1 [Example 45, (S)-2-(tert-butoxy)-2-(4-(4,4-dimethylpiperidin-1-yl)-2,6-dimethyl-5-(4-((4-methyl-2-phenylthiazol-5-yl)methoxy)phenyl)pyridin-3-yl)acetic acid]",29
20,"COc1cccc(CCOc2ccc(-c3c(C)nc(C)c([C@H](OC(C)(C)C)C(=O)O)c3N3CCC(C)(C)CC3)cc2OCCc2cccc(OC)c2)c1 [Example 46, (S)-2-(5-(3,4-bis(3-methoxyphenethoxy)phenyl)-4-(4,4-dimethylpiperidin-1-yl)-2,6-dimethylpyridin-3-yl)-2-(tert-butoxy)acetic acid]",14
21,"Cc1nc(C)c([C@H](OC(C)(C)C)C(=O)O)c(N2CCC(C)(C)CC2)c1-c1ccc(OCc2cnc(Cl)s2)cc1 [Example 47, (S)-2-(tert-butoxy)-2-(5-(4-((2-chlorothiazol-5-yl)methoxy)phenyl)-4-(4,4-dimethylpiperidin-1-yl)-2,6-dimethylpyridin-3-yl)acetic acid]",18
22,"Cc1nc(C)c(CCOc2ccc(-c3c(C)nc(C)c([C@H](OC(C)(C)C)C(=O)O)c3N3CCC(C)(C)CC3)cc2)s1 [Example 48, (S)-2-(tert-butoxy)-2-(4-(4,4-dimethylpiperidin-1-yl)-5-(4-(2-(2,4-dimethylthiazol-5-yl)ethoxy)phenyl)-2,6-dimethylpyridin-3-yl)acetic acid]",1
23,"Cc1nc(C)c([C@H](OC(C)(C)C)C(=O)O)c(N2CCC(C)(C)CC2)c1-c1ccc(OCC(C)(C)c2ccc(F)cc2)cc1 [Example 49, (S)-2-(tert-butoxy)-2-(4-(4,4-dimethylpiperidin-1-yl)-5-(4-(2-(4-fluorophenyl)-2-methylpropoxy)phenyl)-2,6-dimethylpyridin-3-yl)acetic acid]",34
24,"Cc1nc(C)c([C@H](OC(C)(C)C)C(=O)O)c(N2CCC(C)(C)CC2)c1-c1ccc(OCCc2cc(F)c(F)cc2F)cc1 [Example 50, (S)-2-(tert-butoxy)-2-(4-(4,4-dimethylpiperidin-1-yl)-2,6-dimethyl-5-(4-(2,4,5-trifluorophenethoxy)phenyl)pyridin-3-yl)acetic acid]",3
25,"Cc1nc(C)c([C@H](OC(C)(C)C)C(=O)O)c(N2CCC(C)(C)CC2)c1-c1ccc(OCCc2c(F)c(F)cc(F)c2F)cc1 [Example 51, (S)-2-(tert-butoxy)-2-(4-(4,4-dimethylpiperidin-1-yl)-2,6-dimethyl-5-(4-(2,3,5,6-tetrafluorophenethoxy)phenyl)pyridin-3-yl)acetic acid]",6
